Measurements reported in ChEMBL document CHEMBL4321783, “Recent Progress in Natural-Product-Inspired Programs Aimed To Address Antibiotic Resistance and Tolerance” (J Med Chem, 2019).
≈ marks a conversion by molar mass, not a printed value. Each block holds one compound with its values, some of them ahead of it. Positions of bridges follow the written chain, without caps; N, C: chain ends. Non-standard residues stand in square brackets, D forms with d. Residues, ends and D or L forms follow the SMILES beside them. *: point of attachment. Octatrienoyl(2E,4E,6E) = C/C=C/C=C/C=C/C(=O)*; Pro(4R-Me) = C[C@H]1CN[C@H](C(=O)O)C1; NMeA = CN[C@@H](C)C(=O)O

How the values were obtained:
Pseudomonas aeruginosa [1] = test: Growth inhibition of Pseudomonas aeruginosa PA14 after 24 hrs; type: functional, organism-based; conditions: PA14, 24 h
Pseudomonas aeruginosa [2] = test: Antibacterial activity against Pseudomonas aeruginosa; type: functional
Klebsiella pneumoniae [3] = test: Antibacterial activity against Klebsiella pneumoniae; type: functional
Staphylococcus aureus [4] = test: Antibacterial activity against methicillin-resistant Staphylococcus aureus; type: functional
Staphylococcus aureus [5] = test: Antibacterial activity against methicillin-resistant Staphylococcus aureus NRS119 by CLSI-based broth microdilution method; type: functional, organism-based
Enterobacter cloacae [6] = test: Antibacterial activity against Enterobacter cloacae 1-60 by broth microdilution method; type: functional
Escherichia coli [7] = test: Antibacterial activity against Escherichia coli ELZ4346 by broth microdilution method; type: functional
Acinetobacter baumannii [8] = test: Antibacterial activity against Acinetobacter baumannii KB304 by broth microdilution method; type: functional
Escherichia coli [9] = test: Antibacterial activity against Escherichia coli ELZ4017 by broth microdilution method; type: functional
Escherichia coli [10] = test: Antibacterial activity against Escherichia coli ELZ4045 by broth microdilution method; type: functional
Acinetobacter baumannii [11] = test: Antibacterial activity against Acinetobacter baumannii KB349 by broth microdilution method; type: functional
Acinetobacter baumannii [12] = test: Antibacterial activity against Acinetobacter baumannii IF101 by broth microdilution method; type: functional
Klebsiella pneumoniae [13] = test: Antibacterial activity against Klebsiella pneumoniae 6-73 by broth microdilution method; type: functional
[14] = Drug accumulation in Escherichia coli MG1655 assessed per 10^12 CFU at 50 uM incubated for 10 mins under shaking condition by LC-MS/MS analysis; type: ADME, K-12 substr. MG1655
Acinetobacter baumannii [15] = test: Antibacterial activity against Acinetobacter baumannii WO22 by broth microdilution method; type: functional
Escherichia coli [16] = test: Antibacterial activity against Escherichia coli ELZ4239 by broth microdilution method; type: functional
Escherichia coli [17] = test: Antibacterial activity against Escherichia coli ELZ4072 by broth microdilution method; type: functional
Klebsiella pneumoniae [18] = test: Antibacterial activity against Klebsiella pneumoniae ATCC 27736 by broth microdilution method; type: functional
Enterobacter cloacae [19] = test: Antibacterial activity against Enterobacter cloacae ATCC 29893 by broth microdilution method; type: functional
Klebsiella pneumoniae [20] = test: Antibacterial activity against Klebsiella pneumoniae 4-38 by broth microdilution method; type: functional
Acinetobacter baumannii [21] = test: Antibacterial activity against Acinetobacter baumannii ATCC 19606 by broth microdilution method; type: functional; conditions: ATCC 19606 = CIP 70.34 = JCM 6841
Staphylococcus aureus [22] = test: Antibacterial activity against Staphylococcus aureus ATCC 29213 by broth microdilution method; type: functional
Staphylococcus aureus [23] = test: Antibacterial activity against Staphylococcus aureus NRS3 by broth microdilution method; type: functional
Escherichia coli [24] = test: Antibacterial activity against Escherichia coli MG1655 by broth microdilution method; type: functional; conditions: K-12 substr. MG1655
Escherichia coli [25] = test: Antibacterial activity against Escherichia coli ELZ4081 by broth microdilution method; type: functional
Acinetobacter baumannii [26] = test: Antibacterial activity against Acinetobacter baumannii BD335 by broth microdilution method; type: functional
Enterobacter cloacae [27] = test: Antibacterial activity against Enterobacter cloacae 3-46 by broth microdilution method; type: functional
Escherichia coli [28] = test: Antibacterial activity against Escherichia coli BAA-2469 by broth microdilution method; type: functional
Pseudomonas aeruginosa [29] = test: Antibacterial activity against Pseudomonas aeruginosa PAO1 by broth microdilution method; type: functional
Pseudomonas aeruginosa [30] = test: Antibacterial activity against Pseudomonas aeruginosa ATCC 27853 by broth microdilution method; type: functional
Enterococcus faecalis [31] = test: Antibacterial activity against Enterococcus faecalis UNT-047 expressing ermB by broth microdilution method; type: functional
Staphylococcus aureus [32] = test: Antibacterial activity against Staphylococcus aureus BAA-977 expressing iermA by broth microdilution method; type: functional
Streptococcus pneumoniae [33] = test: Antibacterial activity against Streptococcus pneumoniae ATCC 49619 by broth microdilution method; type: functional
Streptococcus pneumoniae [34] = test: Antibacterial activity against Streptococcus pneumoniae UNT-042 expressing ermB/mefA by broth microdilution method; type: functional
Enterococcus faecalis [35] = test: Antibacterial activity against Enterococcus faecalis ATCC 29212 by broth microdilution method; type: functional
Staphylococcus aureus [36] = test: Antibacterial activity against methicillin-resistant Staphylococcus aureus NRS384 expressing MsrA by broth microdilution method; type: functional

SMILES: CCCCCC[C@H](CCCCC[C@@H](O)C(N)=O)NC(=O)[C@@H]1CC=CN1C(=O)c1ccccc1O
- IC50 (Pseudomonas aeruginosa [1]): > 250 µM

SMILES: CCCCCC[C@@H](CCCCC[C@@H](O)C(N)=O)OC(=O)[C@@H]1CC=CN1C(=O)c1ccccc1O
- IC50 (Pseudomonas aeruginosa [1]): 1.5 µM

SMILES: CCCCCC[C@@H](CCCCC[C@H](O)C(N)=O)OC(=O)[C@@H]1CC=CN1C(=O)c1ccccc1O
- IC50 (Pseudomonas aeruginosa [1]): 8 µM

SMILES: CCCCCC[C@H](CCCCC[C@H](O)C(N)=O)OC(=O)[C@@H]1CC=CN1C(=O)c1ccccc1O
- IC50 (Pseudomonas aeruginosa [1]): 5 µM

SMILES: CN(C)[C@@H]1C(O)=C(C(N)=O)C(=O)[C@@]2(O)C(O)=C3C(=O)c4c(O)c(NC(=O)CN5CCCC5)cc(F)c4C[C@H]3C[C@@H]12 [ERAVACYCLINE]
- MIC (Pseudomonas aeruginosa [2]): 0.06 to 64 µg/mL
- MIC (Klebsiella pneumoniae [3]): 0.03 to 16 µg/mL (≈ 0.0537 to 28.6 µM)
- MIC (Staphylococcus aureus [4]): 0.015 to 4 µg/mL (≈ 0.0269 to 7.16 µM)

SMILES: CCCCCC[C@H](CCCCCCC(N)=O)OC(=O)[C@@H]1CC=CN1C(=O)c1ccccc1O
- IC50 (Pseudomonas aeruginosa [1]): 0.035 µM

SMILES: C[C@@H]1C[C@H]2C(=O)OC[C@H](NC(=O)[C@H](Cc3cc(F)cc(F)c3)NC(=O)CCC3CCCCC3)C(=O)N3CCC[C@H]3C(=O)N3CCCC[C@H]3C(=O)N[C@@H](C)C(=O)N2C1
- IC50 (Staphylococcus aureus [5]): 0.5 µM

- MIC (Enterobacter cloacae [6]): 0.5 to 4 µg/mL (≈ 1.54 to 12.3 µM)
- MIC (Escherichia coli [7]): 0.5 to 16 µg/mL (≈ 1.54 to 49.2 µM)
- MIC (Acinetobacter baumannii [8]): 2 to 16 µg/mL (≈ 6.15 to 49.2 µM)
- MIC (Escherichia coli [9]): 0.5 to 16 µg/mL (≈ 1.54 to 49.2 µM)
- MIC (Escherichia coli [10]): 0.5 to 16 µg/mL (≈ 1.54 to 49.2 µM)
- MIC (Acinetobacter baumannii [11]): 2 to 16 µg/mL (≈ 6.15 to 49.2 µM)
- MIC (Acinetobacter baumannii [12]): 2 to 16 µg/mL (≈ 6.15 to 49.2 µM)
- MIC (Klebsiella pneumoniae [13]): 1 to 8 µg/mL (≈ 3.07 to 24.6 µM)
- Drug uptake [14]: 1114 nmol
- MIC (Acinetobacter baumannii [15]): 2 to 16 µg/mL (≈ 6.15 to 49.2 µM)
- MIC (Escherichia coli [16]): 0.5 to 16 µg/mL (≈ 1.54 to 49.2 µM)
- MIC (Escherichia coli [17]): 0.5 to 16 µg/mL (≈ 1.54 to 49.2 µM)
- MIC (Klebsiella pneumoniae [18]): 1 to 8 µg/mL (≈ 3.07 to 24.6 µM)
- MIC (Enterobacter cloacae [19]): 0.5 to 4 µg/mL (≈ 1.54 to 12.3 µM)
- MIC (Klebsiella pneumoniae [20]): 1 to 8 µg/mL (≈ 3.07 to 24.6 µM)
- MIC (Acinetobacter baumannii [21]): 2 to 16 µg/mL (≈ 6.15 to 49.2 µM)
- MIC (Staphylococcus aureus [22]): 0.03 to 0.5 µg/mL (≈ 0.0922 to 1.54 µM)
- MIC (Staphylococcus aureus [23]): 0.03 to 0.5 µg/mL (≈ 0.0922 to 1.54 µM)
- MIC (Escherichia coli [24]): 0.5 to 16 µg/mL (≈ 1.54 to 49.2 µM)
- MIC (Escherichia coli [25]): 0.5 to 16 µg/mL (≈ 1.54 to 49.2 µM)
- MIC (Acinetobacter baumannii [26]): 2 to 16 µg/mL (≈ 6.15 to 49.2 µM)
- MIC (Enterobacter cloacae [27]): 0.5 to 4 µg/mL (≈ 1.54 to 12.3 µM)
- MIC (Escherichia coli [28]): 0.5 to 16 µg/mL (≈ 1.54 to 49.2 µM)
- MIC (Pseudomonas aeruginosa [29]): 16 µg/mL (≈ 49.2 µM)
SMILES: Cc1cc(=O)n(C)c2c3c4c(cc12)c(C)cc(=O)n4C(CN)CO3 (centres undefined)

SMILES: CC[C@H]1OC(=O)[C@H](C)C(=O)[C@H](C)[C@@H](O[C@@H]2O[C@H](C)C[C@H](N(C)C)[C@H]2O)[C@](C)(OC)C[C@@H](C)CN[C@H](C)[C@@H]2N(CCCCn3cc(-c4cccc(N)c4)nn3)C(=O)O[C@@]21C
- MIC (Pseudomonas aeruginosa [30]): 64 µg/mL (≈ 77.3 µM)
- MIC (Enterococcus faecalis [31]): > 64 µg/mL
- MIC (Staphylococcus aureus [32]): 0.5 µg/mL (≈ 0.604 µM)
- MIC (Streptococcus pneumoniae [33]): ≤ 0.03 µg/mL
- MIC (Acinetobacter baumannii [21]): 4 µg/mL (≈ 4.83 µM)
- MIC (Staphylococcus aureus [22]): 0.5 µg/mL (≈ 0.604 µM)
- MIC (Streptococcus pneumoniae [34]): 2 µg/mL (≈ 2.42 µM)
- MIC (Enterococcus faecalis [35]): 0.125 µg/mL (≈ 0.151 µM)
- MIC (Staphylococcus aureus [36]): 1 µg/mL (≈ 1.21 µM)

SMILES: CO[C@]1(C)C[C@@H](C)CN[C@H](C)[C@@H]2N(CCCCn3cc(-c4cccc(N)c4)nn3)C(=O)O[C@]2(C)[C@@H](CCF)OC(=O)[C@H](C)C(=O)[C@H](C)[C@H]1O[C@@H]1O[C@H](C)C[C@H](N(C)C)[C@H]1O
- MIC (Pseudomonas aeruginosa [30]): > 64 µg/mL
- MIC (Enterococcus faecalis [31]): > 64 µg/mL
- MIC (Staphylococcus aureus [32]): 1 µg/mL (≈ 1.18 µM)
- MIC (Streptococcus pneumoniae [33]): ≤ 0.03 µg/mL
- MIC (Acinetobacter baumannii [21]): 4 µg/mL (≈ 4.73 µM)
- MIC (Staphylococcus aureus [22]): 1 µg/mL (≈ 1.18 µM)
- MIC (Streptococcus pneumoniae [34]): 2 µg/mL (≈ 2.36 µM)
- MIC (Enterococcus faecalis [35]): 0.125 µg/mL (≈ 0.148 µM)
- MIC (Staphylococcus aureus [36]): 2 µg/mL (≈ 2.36 µM)

SMILES: C/C=C/C=C/C=C/C(=O)N[C@@H](Cc1ccccc1)C(=O)N[C@H]1COC(=O)[C@@H]2C[C@@H](C)CN2C(=O)[C@H](C)NC(=O)[C@H](C)N(C)C(=O)[C@@H]2CCCN2C1=O ({Octatrienoyl(2E,4E,6E)}-FSP[NMeA]A[Pro(4R-Me)]; ester 2-C)
- IC50 (Staphylococcus aureus [5]): 8.76 µM

- MIC (Enterobacter cloacae [6]): ≥ 32 µg/mL
- MIC (Escherichia coli [7]): > 32 µg/mL
- MIC (Escherichia coli [9]): > 32 µg/mL
- MIC (Escherichia coli [10]): > 32 µg/mL
- MIC (Klebsiella pneumoniae [13]): > 32 µg/mL
- Drug uptake [14]: 298 nmol
- MIC (Escherichia coli [16]): > 32 µg/mL
- MIC (Escherichia coli [17]): > 32 µg/mL
- MIC (Klebsiella pneumoniae [18]): > 32 µg/mL
- MIC (Enterobacter cloacae [19]): ≥ 32 µg/mL
- MIC (Klebsiella pneumoniae [20]): > 32 µg/mL
- MIC (Staphylococcus aureus [22]): 0.06 to 1 µg/mL (≈ 0.202 to 3.37 µM)
- MIC (Staphylococcus aureus [23]): 0.06 to 1 µg/mL (≈ 0.202 to 3.37 µM)
- MIC (Escherichia coli [24]): > 32 µg/mL
- MIC (Escherichia coli [25]): > 32 µg/mL
- MIC (Enterobacter cloacae [27]): ≥ 32 µg/mL
- MIC (Escherichia coli [28]): > 32 µg/mL
SMILES: Cc1cc(=O)n(C)c2c3c4c(cc12)c(C)cc(=O)n4CCO3
